Source: article PMC12434521, “Characterization of Next-Generation Inhibitors for the Inward-Rectifier Potassium Channel Kir2.1: Discovery of VU6080824” (ACS Medicinal Chemistry Letters, 2025)
pIC50: −log10 of the molar value.

What was measured:
human Kir2.1 [1] = target: T1, human Kir2.1 (Homo sapiens, UniProt P63252); assay: Kir2.1 thallium flux assay; format: cell-based; details: for pIC50: T-REx-HEK-293 cells expressing human Kir2.1, 4PL fit, top concentration 30 μM, read-out: Thallium Flux Potency IC50
T1 construct: expressed in transfected cells
T1 sequence (P63252 1-427): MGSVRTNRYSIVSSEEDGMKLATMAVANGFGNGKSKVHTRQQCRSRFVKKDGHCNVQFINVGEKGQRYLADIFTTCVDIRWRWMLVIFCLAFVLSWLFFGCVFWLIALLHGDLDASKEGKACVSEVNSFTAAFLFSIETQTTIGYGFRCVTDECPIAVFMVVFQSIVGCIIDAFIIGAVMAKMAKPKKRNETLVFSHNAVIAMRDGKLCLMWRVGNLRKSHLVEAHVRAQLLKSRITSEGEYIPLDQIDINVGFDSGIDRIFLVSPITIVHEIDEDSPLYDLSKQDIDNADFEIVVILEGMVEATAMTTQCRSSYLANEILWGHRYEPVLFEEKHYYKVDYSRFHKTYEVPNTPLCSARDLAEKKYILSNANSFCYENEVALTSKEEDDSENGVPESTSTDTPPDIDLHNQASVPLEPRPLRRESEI
Experimental: Thallium Flux Assay Experimental Conditions
The Tl+ flux assays were conducted as previously described with modifications optimized for Kir2.1 cell line as described below.1
Briefly, stable T-REx-HEK-293 cells expressing human K ir2.1 were cultured in DMEM growth medium (Catalog #11965-092, Gibco, Billings, MT) containing 10% heat-inactivated FBS (Catalog #16140, Gibco), 100 U/mL PenStrep, 5 μg/mL Blasticidin S, and 250 μg/mL Hygromycin.
The day prior to the experiment, cells at ~90% confluency were resuspended in plating media, which consisted of the same components as the growth media, except that heat-inactivated FBS was replaced with dialyzed FBS (Catalog #26400, Gibco). Tetracycline was added to the plating media to achieve a final concentration of 1 μg/ml to induce hKir2.1 expression. Cells were then counted and plated at 15,000 cells/well in black-walled, amine- or PDL- coated, 384-well plates at 20 μl/well (Corning, Corning, NY). On the day of experiment, the media was removed from the cell plate and replaced with 20 μl/well of Tl+-sensitive dye loading solution containing 2.5 μg/ml Thallos-AM (Catalog #11000-050, ION Biosciences, San Marcos, TX) in assay buffer using a Multidrop Combi dispenser (Thermo Fisher Scientific, Walkham, MA). Cell plates loaded with dye solution were incubated for 1 hour at room temperature. Following incubation, the cell plate was washed with HBSS assay buffer containing 20 mM HEPES using a BioTek ELx 405 TS plate washer (Agilent, Santa Clara, CA), leaving 20 μl of assay buffer in each well. The cell plate was then transferred to a Panoptic kinetic imaging plate reader (WaveFront Biosciences, Franklin, TN) for imaging at 1 Hz, 482/35 nm excitation and 536/40 nm emission for 10 seconds. Following this, 20 μl/well of HBSS assay buffer containing test compounds at 2-fold over their final concentrations were added and imaging continued for another eight minutes, after which 10 μl/well of chloride-free Tl+ stimulus solution was added (Catalog #11000-050, ION Biosciences). The final Tl2SO4 concentration in cell plate post-Tl+ stimulus solution addition was 0.25 mM. Images were collected for an additional two minutes. A ten-point concentration series from 30 μM to 2 nM with a 1:3 dilution factor was generated using an Echo liquid handler 650 (Labcyte, San Jose, CA). Final DMSO concentration, 0.3% (v/v) in the assay was constant across all compound concentrations.
The initial slopes of the Tl+-induced fluorescence changes were fit to a four-parameter logistic equation using our in-house software Waveguide to determine potency and efficacy values. […]
Bauer, J. A.; Days, E. L.; Lindsley, C. […]

[2] = Rat PK PBL cassette (i.v.); format: in vivo, Sprague-Dawley rat; details: Sprague-Dawley, iv, male SD rat, 0.2 mg/kg i.v. cassette
Source text: While ML133 has found use as a Kir2.1 tool molecule across many disease models, the in vivo PK of this and related compounds within the dibenzylamine chemotype have not previously been characterized. As a highly efficient method for profiling the PK of a compound set, we therefore examined ML133 (alongside 9 additional next-generation Kir2.1 inhibitors) in our rat PK PBL cassette dosing platform (Table ). − From this experimental setup, administration of a 4-compound bolus dose, plus a standard control, can be used to determine a variety of PK parameters in a high-throughput fashion. Specifically, Sprague–Dawley (SD) rats were given 0.2 mg/kg of each Kir2.1 inhibitor (i.v. dosing, 4 compounds +1 control, total dose 1 mg/kg) with PK measured across set time points up to 24 h. Additionally, a separate cohort of animals was utilized to assess total plasma-brain levels (PBL, ratio reported as Kp) of compound at a 0.25 time point. In this fashion, standard plasma-based PK parameters (elimination t 1/2, […] (MRT), plasma clearance (CLp), and volume of distribution (Vss)) were measured alongside a parallel assessment of total brain exposure.
PK PBL Cassette Experimental Conditions
4 compounds plus one control were formulated as a solution in ethanol, PEG400, and DMSO (1:3:6 v/v, respectively) at a concentration of 1 mg/mL and administered as a single IV dose (1 mL/kg, 0.2 mg/kg per compound, total 1 mg/kg) to male, Sprague Dawley rats (n = 1) via injection into a surgically -implanted jugular vein catheter. Blood samples were collected serially from a surgically implanted carotid artery catheter in each animal over multiple post -administration time points (0.033, 0.117, 0.25, 0.5, 1, 2, 4, 7, and 24 hours) into chilled, K 2EDTA anticoagulant - fortified tubes and immediately placed on wet ice. The blood samples were then centrifuged (1700 rcf, 5 minutes, 4 °C) to ob tain plasma samples, which were stored at -80 °C until analysis […]
For determination of the brain over plasma ratio (K p), the same cassette of compounds plus control were formulated in ethanol, PEG400, and DMSO (1:3:6 v/v, respectively) and administered as a single IV dose (1 mL/kg, 0.2 mg/kg per compound, total 1 mg/kg) to male, Sprague Dawley rats ( n = 1) via injection into a surgically-implanted jugular vein catheter. At 15 min post dosing, blood sample was collected terminally into chilled, K 2EDTA anticoagulant-fortified tube and immediately placed on wet ice. The bloo d sample was then centrifuged (1700 rcf, 5 minutes, 4 °C) to obtain plasma sample. At the same post-administration time point, whole brain sample was obtained by rapid dissection, rinsed with PBS, and immediately frozen in individual tissue collection box (dry ice). All brain and plasma samples were stored at -80 °C until […]
Samples preparation for bioanalysis
Plasma samples from the in-life phase of the study were thawed at ambient temperature (benchtop), and then aliquots (20 µL per sample) were transferred to a 96-shallow-well (V-bottom) plate. Matrix-matched quality control (QC) samples and a standard curve of each analyte (1 mg/mL DMSO stock solution) were prepared in blank rat plasma (K2EDTA-treated) via serial dilution and transferred (20 µL each) to the plate along with multiple blank plasma samples. MeCN (120 µL) containing IS (10 nM carbamazepine) was added to each well of the plate to precipitate protein. The plate was then centrifuged (4000 rcf, 5 minutes, ambient temperature), and resulting supernatants (60 µL each) were transferred to a new 96-shallow-well (V-bottom) plate containing an equal volume (60 µL per well) of water (Milli-Q purified). The plate was then sealed in preparation for LC-MS/MS analysis.
Preparation of brain samples was identical to that of plasma samples except for the following modifications. While thawing, brains were weighed (inside their collection boxes using a universal empty collection box tare weight) and then subjected to mechanical homogenization […]

human Kir2.1 [3] = target: T1, human Kir2.1; assay: Kir2.1 manual patch clamp (MPC) assay; format: cell-based; details: pH 7.4, -120 mV, normalized to 2 mM Ba2+ block; top concentration 10 μM (ML133 30 μM, 5t 3 μM)
Experimental: Manual Patch Claim Assay Experimental Conditions
Whole-cell patch-clamp electrophysiology was used to record K ir2.1 currents from a stably transfected monoclonal T-Rex-HEK-293 cell line with a tetracycline-inducible promoter expressing human Kir2.1, as described previously1 cultured in a 5% CO2 incubator at 37°C. Kir2.1 expression was induced by overnight treatment with 1 µg/mL tetracycline. Cells were dissociated using 0.25% Trypsin-EDTA and seeded onto 12 mm circular coverslips (Electron Microscopy Sciences, PA, USA) for same-day whole-cell patch-clamp recordings. Kir2.1 currents were recorded at room temperature using an AxoPatch 200B amplifier with Clampex 10.7 software (Molecular Devices, USA). The voltage-clamp protocol consisted of a 1-s step to -120 mV from a -80 mV holding potential, followed by a 2-s ramp to +40 mV, repeated every 10 s. Data were sampled at 5 kHz and filtered at 1 kHz. Patch pipettes, pulled from 1.5 mm OD thin-walled capillaries (Warner Instruments, MA, USA) using a Sutter P-1000 puller (Sutter Instrument, CA, USA), had resistances of 2–3 MΩ when filled with intracellular solution containing (mM): 135 KCl, 10 HEPES, 1 EGTA, 2 MgCl2, 2 Na2ATP (pH 7.35, adjusted with KOH). The extracellular solution contained (mM): 135 NaCl, 5 KCl, 2 CaCl2, 1 MgCl2, 5 Glucose, 10 HEPES, 10 Sucrose (pH 7.35, adjusted with NaOH). After establishing stable baseline Kir2.1 currents, cells were perfused with compounds at concentrations of 0.03–30 µM until response saturation (within minutes).
Recordings concluded with a 2 mM Ba2+ solution to isolate Ba2+-sensitive currents, with compound responses expressed as fractions of this current. Current amplitudes at the -120 mV step were analyzed using Clampfit 11.2 (Molecular Devices). IC50 values were calculated by fitting the Hill equation to concentration-response curves (CRCs) using variable -slope nonlinear regression in GraphPad Prism 10.4 (GraphPad Software).
MPC experiments for Kir2.2 and Kir2.3 were conducted in an analogous fashion.1

SMILES: COc1ccc(CNCc2ccc(-c3cccc(C)c3)cc2)cc1 [Compound 5r]
- pIC50 (human Kir2.1 [1]): 5.07
- Emax (human Kir2.1 [1]; efficacy from 4PL fit, relative to ML133, read-out: Thallium Flux Efficacy (% Inhibition)): 99%
- Kp at 0.25 h ([2]; brain and plasma, 0.25 time point (15 min post dosing), read-out: Kp (total brain to plasma ratio)): 2.29
- AUC ([2]; plasma, n = 1, read-out: AUC): 162 ng·h/mL
- clearance ([2]; plasma, n = 1, read-out: CLp): 20.6 mL/min/kg
- half-life ([2]; plasma, n = 1, read-out: Elim. t1/2 (converted)): 1.73 h
- MRT ([2]; plasma, n = 1, read-out: MRT): 1.31 h
- Vd ([2]; plasma, n = 1, read-out: Vss): 1.62 L/kg

SMILES: COc1ccc(CNCc2ccc(-c3cccc(OC)c3)cc2)cc1 [Compound 9]
- pIC50 (human Kir2.1 [1]): 5.27
- pIC50 (human Kir2.1 [3]): 6.68

SMILES: COc1ccc(CNCc2ccc(-c3cccc(OC)c3)cc2)cc1 [Compound 11]
- pIC50 (human Kir2.1 [1]): 5.37
- pIC50 (human Kir2.1 [3]): 6.48

SMILES: COc1ccc(CNCc2ccc(-c3cccc(OC)c3)cc2)cc1 [Compound 13]
- pIC50 (human Kir2.1 [1]): 5.33
- pIC50 (human Kir2.1 [3]): 6.68
